According to ChEMBL document CHEMBL3526102, “Biotransformation of two β-secretase inhibitors including ring opening and contraction of a pyrimidine ring” (Drug Metab Dispos, 2013):

How the values were obtained:
Hepatocyte [1] = assay: Drug level in Sprague-Dawley rat hepatocytes treated with [14C]-AZD3839 at 5 uM after 120 mins by LC-MS analysis; assay type: ADME, cell-based; conditions: 2 h
Hepatocyte [2] = assay: Drug level in human hepatocytes treated with [14C]-AZD3839 at 5 uM after 120 mins by LC-MS analysis; assay type: ADME, cell-based; conditions: 2 h
Cytochrome P450 3A4 = Cytochrome P450 3A4 (Homo sapiens, UniProt P08684); assay: Activity of human recombinant CYP3A4 expressed in insect BTI-TN-5B1-4 cell microsomes assessed as enzyme-mediated drug metabolism treated with (S)-1-pyridin-4-yl-4-fluoro-1-(3-(pyrimidin-5-yl)phenyl)-1H-isoindol-3-amine at 2 uM after 30 mins; assay type: ADME; conditions: bti-tn-5b1-4, 0.5 h
Sequence of Cytochrome P450 3A4 (P08684 whole entry): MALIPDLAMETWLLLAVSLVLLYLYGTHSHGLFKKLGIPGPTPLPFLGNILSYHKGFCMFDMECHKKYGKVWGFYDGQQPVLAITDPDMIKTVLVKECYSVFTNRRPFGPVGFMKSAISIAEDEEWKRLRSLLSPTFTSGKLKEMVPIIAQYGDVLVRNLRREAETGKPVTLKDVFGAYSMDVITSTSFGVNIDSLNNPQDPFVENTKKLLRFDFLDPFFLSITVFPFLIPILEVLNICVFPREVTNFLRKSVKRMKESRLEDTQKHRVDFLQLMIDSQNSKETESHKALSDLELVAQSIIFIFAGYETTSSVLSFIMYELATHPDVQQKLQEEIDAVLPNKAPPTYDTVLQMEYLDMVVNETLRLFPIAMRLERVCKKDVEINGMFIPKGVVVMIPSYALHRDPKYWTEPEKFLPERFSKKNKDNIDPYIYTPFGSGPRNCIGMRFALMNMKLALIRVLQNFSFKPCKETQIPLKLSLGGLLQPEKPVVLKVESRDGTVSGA

Liver microsome [3] = assay: Drug level in human liver microsomes treated with (S)-1-pyridin-4-yl-4-fluoro-1-(3-(pyrimidin-5-yl)phenyl)-1H-isoindol-3-amine at 1 uM after 30 mins by LC-MS analysis; assay type: ADME; conditions: 0.5 h
Liver microsome [4] = assay: Drug level in Sprague-Dawley rat liver microsomes treated with (S)-1-pyridin-4-yl-4-fluoro-1-(3-(pyrimidin-5-yl)phenyl)-1H-isoindol-3-amine at 1 uM after 30 mins by LC-MS analysis; assay type: ADME; conditions: 0.5 h
Plasma = assay: Drug level in bile duct-cannulated Sprague-Dawley rat plasma treated with (S)-1-pyridin-4-yl-4-fluoro-1-(3-(pyrimidin-5-yl)phenyl)-1H-isoindol-3-amine at 30 umol/kg, iv after 6 hrs by LC-MS analysis; assay type: ADME, organism-based; conditions: in vivo
Liver = assay: Drug level in Sprague-Dawley rat aroclor 1254-induced liver S9 fraction treated with AZD3839 at 100 uM by LC-MS analysis; assay type: ADME, subcellular; conditions: s9, 100 µM
Hepatocyte [5] = assay: Drug level in New Zealand White rabbit hepatocytes treated with [14C]-AZD3839 at 5 uM after 120 mins by LC-MS analysis; assay type: ADME, cell-based, Oryctolagus cuniculus; conditions: 2 h
Liver microsome [6] = assay: Drug level in human liver microsomes treated with AZD3839 at 1 uM after 30 mins by LC-MS analysis; assay type: ADME; conditions: 0.5 h
Liver microsome [7] = assay: Drug level in Sprague-Dawley rat liver microsomes treated with AZD3839 at 1 uM after 30 mins by LC-MS analysis; assay type: ADME; conditions: 0.5 h
[8] = Drug level in Sprague-Dawley rat bile treated with [14C]-AZD3839 at 58 umol/kg, po after 48 hrs by LC-MS analysis; assay type: ADME, organism-based; conditions: in vivo
[9] = Drug metabolism in human hepatocytes assessed as (S)-4-(3-amino-4-fluoro-1-(3-(pyrimidin-5-yl)phenyl)-1H-isoindol-1-yl)-2-(difluoromethyl)pyridine 1-oxide formation at 5 uM after 120 mins by LC-MS analysis; assay type: ADME, cell-based, Hepatocyte; conditions: 2 h
[10] = Drug metabolism in human hepatocytes assessed as 1-(3-(3-amino-1-(2-(difluoromethyl)pyridin-4-yl)-4-fluoro-1H-isoindol-1-yl)phenyl)ethane-1,2-diol formation at 5 uM after 120 mins by LC-MS analysis; assay type: ADME, cell-based, Hepatocyte; conditions: 2 h
[11] = Drug metabolism in New Zealand White rabbit hepatocytes assessed as 1-(3-(3-amino-1-(2-(difluoromethyl)pyridin-4-yl)-4-fluoro-1H-isoindol-1-yl)phenyl)ethane-1,2-diol formation at 5 uM after 120 mins by LC-MS analysis; assay type: ADME, cell-based, Oryctolagus cuniculus, Hepatocyte; conditions: 2 h
[12] = Drug metabolism in Sprague-Dawley rat hepatocytes assessed as (S)-4-(3-amino-4-fluoro-1-(3-(pyrimidin-5-yl)phenyl)-1H-isoindol-1-yl)-2-(difluoromethyl)pyridine 1-oxide formation at 5 uM after 120 mins by LC-MS analysis; assay type: ADME, cell-based, Hepatocyte; conditions: 2 h
[13] = Drug metabolism in Sprague-Dawley rat hepatocytes assessed as 5-(3-(3-amino-1-(2-(difluoromethyl)pyridin-4-yl)-4-fluoro-1H-isoindol-1-yl)phenyl)pyrimidin-4-ol formation at 5 uM after 120 mins by LC-MS analysis; assay type: ADME, cell-based, Hepatocyte; conditions: 2 h
[14] = Drug excretion in Han Wistar rat urine at 5.8 umol/kg, iv by LC-MS analysis; assay type: ADME, organism-based; conditions: read-out: Drug excretion
[15] = Drug metabolism in human hepatocytes assessed as 5-(3-(3-amino-1-(2-(difluoromethyl)pyridin-4-yl)-4-fluoro-1H-isoindol-1-yl)phenyl)pyrimidin-4-ol formation at 5 uM after 120 mins by LC-MS analysis; assay type: ADME, cell-based, Hepatocyte; conditions: 2 h
[16] = Drug metabolism in Sprague-Dawley rat hepatocytes assessed as 5-(3-(3-amino-1-(2-(difluoromethyl)-1-oxidopyridin-4-yl)-4-fluoro-1H-isoindol-1-yl)phenyl)pyrimidine 1-oxide formation at 5 uM after 120 mins by LC-MS analysis; assay type: ADME, cell-based, Hepatocyte; conditions: 2 h
[17] = Drug metabolism in New Zealand White rabbit hepatocytes assessed as (S)-5-(3-(3-amino-1-(2-(difluoromethyl)pyridin-4-yl)-4-fluoro-1H-isoindol-1-yl)phenyl)pyrimidine 1-oxide formation at 5 uM after 120 mins by LC-MS analysis; assay type: ADME, cell-based, Oryctolagus cuniculus, Hepatocyte; conditions: 2 h
[18] = Drug metabolism in human hepatocytes assessed as (S)-5-(3-(3-amino-1-(2-(difluoromethyl)pyridin-4-yl)-4-fluoro-1H-isoindol-1-yl)phenyl)pyrimidine 1-oxide formation at 5 uM after 120 mins by LC-MS analysis; assay type: ADME, cell-based, Hepatocyte; conditions: 2 h
[19] = Drug metabolism in Sprague-Dawley rat bile assessed as 5-(3-(3-amino-1-(2-(difluoromethyl)pyridin-4-yl)-4-fluoro-1H-isoindol-1-yl)phenyl)-1H-imidazol-1-ol formation at 58 umol/kg, po after 48 hrs by LC-MS analysis; assay type: ADME, organism-based; conditions: in vivo
[20] = Drug metabolism in Sprague-Dawley rat hepatocytes assessed as (2S,3S,4S,5R,6S)-6-(5-(3-(3-amino-1-(2-(difluoromethyl)pyridin-4-yl)-4-fluoro-1H-isoindol-1-yl)phenyl)-1H-imidazol-1-yloxy)-3,4,5-trihydroxytetrahydro-2H-pyran-2-carboxylic acid formation at 5 uM after 120 mins by LC-MS analysis; assay type: ADME, cell-based, Hepatocyte
[21] = Drug metabolism in human hepatocytes assessed as 5-(3-(3-amino-1-(2-(difluoromethyl)-1-oxidopyridin-4-yl)-4-fluoro-1H-isoindol-1-yl)phenyl)pyrimidine 1-oxide formation at 5 uM after 120 mins by LC-MS analysis; assay type: ADME, cell-based, Hepatocyte; conditions: 2 h
[22] = Drug excretion in Han Wistar rat feces at 5.8 umol/kg, iv by LC-MS analysis; assay type: ADME, organism-based; conditions: faeces, read-out: Drug excretion
[23] = Drug metabolism in Sprague-Dawley rat hepatocytes assessed as (S)-5-(3-(3-amino-1-(2-(difluoromethyl)pyridin-4-yl)-4-fluoro-1H-isoindol-1-yl)phenyl)pyrimidine 1-oxide formation at 5 uM after 120 mins by LC-MS analysis; assay type: ADME, cell-based, Hepatocyte; conditions: 2 h
[24] = Drug metabolism in human hepatocytes assessed as 5-(3-(3-amino-1-(2-(difluoromethyl)pyridin-4-yl)-4-fluoro-1H-isoindol-1-yl)phenyl)pyrimidin-4(3H)-one formation at 5 uM after 120 mins by LC-MS analysis; assay type: ADME, cell-based, Hepatocyte; conditions: 2 h
[25] = Drug metabolism in Sprague-Dawley rat bile assessed as (2S,3S,4S,5R,6S)-6-(5-(3-(3-amino-1-(2-(difluoromethyl)pyridin-4-yl)-4-fluoro-1H-isoindol-1-yl)phenyl)-1H-imidazol-1-yloxy)-3,4,5-trihydroxytetrahydro-2H-pyran-2-carboxylic acid formation at 58 umol/kg, po after 48 hrs by LC-MS analysis; assay type: ADME, organism-based; conditions: in vivo
Liver microsome [26] = assay: Drug metabolism in human liver microsomes assessed as (S)-4-(3-amino-4-fluoro-1-(3-(pyrimidin-5-yl)phenyl)-1H-isoindol-1-yl)-2-(difluoromethyl)pyridine 1-oxide formation at 1 uM after 30 mins by LC-MS analysis; assay type: ADME; conditions: 0.5 h
Liver microsome [27] = assay: Drug metabolism in Sprague-Dawley rat liver microsomes assessed as (S)-4-(3-amino-4-fluoro-1-(3-(pyrimidin-5-yl)phenyl)-1H-isoindol-1-yl)-2-(difluoromethyl)pyridine 1-oxide formation at 1 uM after 30 mins by LC-MS analysis; assay type: ADME; conditions: 0.5 h
[28] = Drug metabolism in Sprague-Dawley rat aroclor 1254-induced liver S9 fraction assessed as 5-(3-(3-amino-1-(2-(difluoromethyl)pyridin-4-yl)-4-fluoro-1H-isoindol-1-yl)phenyl)pyrimidin-4(3H)-one formation at 100 uM by LC-MS analysis; assay type: ADME, subcellular; conditions: s9, 100 µM
[29] = Drug metabolism in Sprague-Dawley rat aroclor 1254-induced liver S9 fraction assessed as (S)-5-(3-(3-amino-1-(2-(difluoromethyl)pyridin-4-yl)-4-fluoro-1H-isoindol-1-yl)phenyl)pyrimidine 1-oxide formation at 100 uM by LC-MS analysis; assay type: ADME, subcellular; conditions: s9, 100 µM
Liver microsome [30] = assay: Drug metabolism in Sprague-Dawley rat liver microsomes assessed as (S)-5-(3-(3-amino-1-(2-(difluoromethyl)pyridin-4-yl)-4-fluoro-1H-isoindol-1-yl)phenyl)pyrimidine 1-oxide formation at 1 uM after 30 mins by LC-MS analysis; assay type: ADME; conditions: 0.5 h
Liver microsome [31] = assay: Drug metabolism in human liver microsomes assessed as (S)-5-(3-(3-amino-1-(2-(difluoromethyl)pyridin-4-yl)-4-fluoro-1H-isoindol-1-yl)phenyl)pyrimidine 1-oxide formation at 1 uM after 30 mins by LC-MS analysis; assay type: ADME; conditions: 0.5 h
[32] = Drug metabolism in Sprague-Dawley rat aroclor 1254-induced liver S9 fraction assessed as (S)-4-(3-amino-4-fluoro-1-(3-(pyrimidin-5-yl)phenyl)-1H-isoindol-1-yl)-2-(difluoromethyl)pyridine 1-oxide formation at 100 uM by LC-MS analysis; assay type: ADME, subcellular; conditions: s9, 100 µM
[33] = Drug excretion in bile duct-cannulated Sprague-Dawley rat bile at 30 umol/kg, iv after 6 hrs by LC-MS analysis; assay type: ADME, organism-based; conditions: read-out: Drug excretion
[34] = Drug excretion in Sprague-Dawley rat feces at 30 umol/kg, iv after 48 hrs by LC-MS analysis; assay type: ADME, organism-based; conditions: faeces, read-out: Drug excretion
[35] = Drug excretion in Sprague-Dawley rat urine at 30 umol/kg, iv after 24 hrs by LC-MS analysis; assay type: ADME, organism-based; conditions: read-out: Drug excretion

## NC1=NC(c2cccc(-c3cnc[n+]([O-])c3)c2)(c2cc[n+]([O-])c(C(F)F)c2)c2cccc(F)c21 (stereo not given)
Hepatocyte [1]
  Drug metabolism: metabolite_detected
Hepatocyte [2]
  Drug metabolism: metabolite_detected

## NC1=NC(c2cc[n+]([O-])cc2)(c2cccc(-c3cncnc3)c2)c2cccc(F)c21 (stereo not given)
Cytochrome P450 3A4
  Drug metabolism: metabolite_detected
Liver microsome [3]
  Drug metabolism: metabolite_detected
Liver microsome [4]
  Drug metabolism: metabolite_detected
Plasma
  Drug metabolism: metabolite_detected

## NC1=N[C@@](c2cccc(-c3cnc[n+]([O-])c3)c2)(c2ccnc(C(F)F)c2)c2cccc(F)c21
Hepatocyte [1]
  Drug metabolism: metabolite_detected
Liver
  Drug metabolism: metabolite_detected
Hepatocyte [5]
  Drug metabolism: metabolite_detected
Liver microsome [6]
  Drug metabolism: metabolite_detected
Hepatocyte [2]
  Drug metabolism: metabolite_detected
Liver microsome [7]
  Drug metabolism: metabolite_detected

## NC1=N[C@@](c2cccc(-c3cncnc3)c2)(c2cc[n+]([O-])c(C(F)F)c2)c2cccc(F)c21
Hepatocyte [1]
  Drug metabolism: metabolite_detected
Liver
  Drug metabolism: metabolite_detected
Liver microsome [6]
  Drug metabolism: metabolite_detected
Hepatocyte [2]
  Drug metabolism: metabolite_detected
Liver microsome [7]
  Drug metabolism: metabolite_detected

## NC1=NC(c2cccc(-c3cncn3O)c2)(c2ccnc(C(F)F)c2)c2cccc(F)c21 (stereo not given)
[8]
  Drug metabolism: metabolite_detected

## NC1=NC(c2cccc(C(O)CO)c2)(c2ccnc(C(F)F)c2)c2cccc(F)c21 (stereo not given)
Hepatocyte [5]
  Drug metabolism: metabolite_detected
Hepatocyte [2]
  Drug metabolism: metabolite_detected

## NC1=NC(c2cccc(-c3cncn3O[C@@H]3O[C@H](C(=O)O)[C@@H](O)[C@H](O)[C@H]3O)c2)(c2ccnc(C(F)F)c2)c2cccc(F)c21 (stereo not given in full)
[8]
  Drug metabolism: metabolite_detected
Hepatocyte [1]
  Drug metabolism: metabolite_detected

## NC1=N[C@](c2ccnc(C(F)F)c2)([14c]2[14cH][14cH][14cH][14c](-c3cncnc3)[14cH]2)c2cccc(F)c21.O=C(O)/C=C/C(=O)O
[9]
  Drug metabolism: metabolite_detected
[10]
  Drug metabolism: metabolite_detected
[11]
  Drug metabolism: metabolite_detected
[12]
  Drug metabolism: metabolite_detected
[13]
  Drug metabolism: metabolite_detected
[14]
  dose excreted: < 1%
[15]
  Drug metabolism: metabolite_detected
[16]
  Drug metabolism: metabolite_detected
[17]
  Drug metabolism: metabolite_detected
[18]
  Drug metabolism: metabolite_detected
[19]
  Drug metabolism: metabolite_detected
[20]
  Drug metabolism: metabolite_detected
[21]
  Drug metabolism: metabolite_detected
[22]
  dose excreted: > 90%
[23]
  Drug metabolism: metabolite_detected
[24]
  Drug metabolism: metabolite_detected
[25]
  Drug metabolism: metabolite_detected

## NC1=NC(c2cc[n+]([O-])cc2)(c2cccc(-c3cnc[n+]([O-])c3)c2)c2cccc(F)c21 (stereo not given)
Plasma
  Drug metabolism: metabolite_detected

## NC1=N[C@@](c2cccc(-c3cncnc3)c2)(c2ccnc(C(F)F)c2)c2cccc(F)c21.O=C(O)/C=C/C(=O)O
Liver microsome [26]
  Drug metabolism: metabolite_detected
Liver microsome [27]
  Drug metabolism: metabolite_detected
[28]
  Drug metabolism: metabolite_detected
[29]
  Drug metabolism: metabolite_detected
Liver microsome [30]
  Drug metabolism: metabolite_detected
Liver microsome [31]
  Drug metabolism: metabolite_detected
[32]
  Drug metabolism: metabolite_detected

## [3H]c1cc(-c2c([3H])nc([3H])nc2[3H])cc([C@@]2(c3cc([3H])nc([3H])c3)N=C(N)c3c(F)cccc32)c1
[33]
  dose excreted at 6 h: 55%
[34]
  dose excreted at 48 h: > 90%
[35]
  dose excreted at 24 h: < 10%
